In EP4640679A1, “SALT FORM AND CRYSTAL FORM OF PYRIDINE MULTI-SUBSTITUTED COMPOUND AND PREPARATION METHOD THEREFOR” (Usynova Pharmaceuticals Ltd., priority 2022, dated 2024):

What was measured:
[1] = molecular target: T1, TYK2 protein (His-TVMV-TYK2 JH2 (575-869)) (Homo sapiens, UniProt P29597); experiment: Tyk2 JH2 enzyme activity test (HTRF tracer displacement); format: binding
T1 construct: TYK2 protein (His-TVMV-TYK2 JH2 (575-869))
Method: To a buffer solution containing 20 mM of Hepes pH 7.5, 10 mM of MgCl2, 0.015% of Brij-35, 2 mM of DTT and 50 µg/ mL of BSA were added 0.5 nM of TYK2 protein (His-TVMV-TYK2 JH2 (575-869)), 0.2 nM of terbium-labeled His antibody, fluorescein-labeled kinase tracer at the relevant Kd value, and the test compound. The test system was incubated at room temperature for 90 minutes. Subsequently, the generated HTRF (homogeneous time-resolved fluorescence) signal, i.e., the ratio of the fluorescence intensity of the fluorescein acceptor (520 nm) and the terbium donor (495 nm) at the emission wavelength, was measured on an Envision plate reader, and the IC50 value was calculated based on this. The results of in vitro enzyme activity assay of the free base of the compound of the present disclosure are shown in Table 3: Table 3: In vitro enzyme activity test results of the compound of the present disclosure (IC50)

[2] = test system: IFNα-stimulated phosphorylated STAT1; experiment: IFNα-stimulated phosphorylation STAT1 assay in hPBMC (flow cytometry, CD4+ T cells); format: cell-based, Human
Method: Human peripheral blood mononuclear cells (hPBMC) were seeded at a cell density of 1x10^5 cells/well and placed in an incubator at 37°C for 90 minutes. Then different concentrations of compounds were added to the cells, wherein the concentration range of each compound started from 2 µM, which was serially diluted 5-fold to obtain a total of 8 concentration gradients. The compounds and cells were incubated at 37 °C for 30 minutes. hPBMC were stimulated with IFN-a (1000 U/ml), and then the level of phosphorylated STAT1 in CD4+ T cells was detected by flow cytometry to evaluate the inhibitory activity of the compound on the IFN-α pathway. The results of the in vitro cell activity assay of the free base of the compound of the present disclosure are shown in Table 4: Table 4: In vitro cell activity test results of the compound of the present disclosure (IC50)

[3] = Pharmacokinetic study, oral administration, mouse; format: in vivo, CD-1 mice; conditions: plasma, 10 mg/kg, 10 mpk
Method: (§1) The purpose of this experiment is to study the pharmacokinetics of the test substance in the plasma of male CD-1 mice, SD rats and […] after intravenous injection and oral administration.
(§2) The animals were randomly divided into two groups, with 2 males in each group. The compounds were formulated into the specified formulations (the vehicle was 5 mg/mL of 10% sulfobutyl ether-β-cyclodextrin), and the oral formulations were clear or homogeneous suspensions.
(§3) Whole blood samples were collected from the animals by jugular vein puncture or saphenous vein at 5, 15, 30 minutes, 1, 2, 4, 8, and 24 hours after administration. The whole blood samples were added into centrifuge tubes containing anticoagulants, and centrifuged at 3000g for 15 minutes at 4°C. The supernatant plasma was collected and quickly frozen on dry ice and then stored in a refrigerator at -70 ± 10°C until LC-MS/MS analysis.
(§4) The pharmacokinetic software WinNonlin™ Version 6.3.0 (Pharsight, Mountain View, CA) was used to process the plasma drug concentration data of the compound in a non-compartmental model. The peak concentration (Cmax) and time to peak (Tmax) as well as last measurable time point were directly obtained from the plasma drug concentration-time graph.
(§5) The following pharmacokinetic parameters were calculated using the log-linear trapezoidal method: plasma clearance rate (CL), volume of distribution (Vd), elimination phase half-life (T1/2), mean residence time of drug in vivo from 0 to the terminal time point (MRT0-last), mean residence time of drug in vivo from 0 to infinite time (MRT0-inf), area under the time-plasma concentration curve from 0 to the terminal time point (AUC0-last), area under the time-plasma concentration curve from 0 to infinite time (AUC0-inf), and bioavailability (F). The experimental results of the present disclosure are shown in Table 5: Table 5: Pharmacokinetic test results

[4] = Pharmacokinetic study, oral administration, rat; format: in vivo, SD rats; conditions: plasma, 30 mg/kg, 30 mpk
Method: as §1, §2, §3, §4, §5

[5] = Pharmacokinetic study, oral administration, dog; format: in vivo; conditions: plasma, 25 mg/kg, 25 mpk
Method: as §1, §2, §3, §4, §5

T1 sequence (P29597 575-869, species assumed): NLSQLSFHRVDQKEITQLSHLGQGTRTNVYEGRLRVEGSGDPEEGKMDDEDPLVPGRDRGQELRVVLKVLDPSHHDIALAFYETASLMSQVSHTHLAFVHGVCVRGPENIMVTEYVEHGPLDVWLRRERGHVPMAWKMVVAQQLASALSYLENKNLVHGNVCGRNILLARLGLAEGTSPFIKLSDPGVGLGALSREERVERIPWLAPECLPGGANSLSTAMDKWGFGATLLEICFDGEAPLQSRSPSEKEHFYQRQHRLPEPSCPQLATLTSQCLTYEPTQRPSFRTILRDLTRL

[2H]C([2H])([2H])CC(=O)c1cnc(NC(=O)C2CC2)cc1Nc1cccc(-c2cnc(N=S(C)(C)=O)cn2)c1OC
IC50 ([1]; HTRF, 90 minutes at room temperature): 0.04 nM
inhibitory activity against Tyk2 JH2 ([1]; conclusion in words): strong inhibitory activity
IC50 ([2]; Homo sapiens, CD4+ T, read-out: IFNα-stimulated phosphorylated STAT1 (IC50 nM)): 1.1 nM
Tyk2-related cellular activity on IFNα-stimulated phosphorylated STAT1 ([2]; conclusion in words): strong Tyk2-related cellular activity

[2H]C([2H])([2H])CC(=O)c1cnc(NC(=O)C2CC2)cc1Nc1cccc(-c2cnc(N=S(C)(C)=O)cn2)c1OC [Compound of formula (I)]
AUC(0-t) [3]: 76 µM·h
Cmax [3]: 32.4 µM
Tmax [3]: 30 min
bioavailability [3]: 81%
AUC(0-t) [4]: 231 µM·h
Cmax [4]: 44.5 µM
Tmax [4]: 45 min
bioavailability [4]: 65%
AUC(0-t) [5]: 66.5 µM·h
Cmax [5]: 16.8 µM
Tmax [5]: 120 min
bioavailability [5]: 103%
